This is an account of results in patent publication US8355136B2, “Sub-micron surface plasmon resonance sensor systems” (Indiana University Research and Technology Corporation, priority 2005, dated 2013).

The target in assay [1] is T1, GOx (Aspergillus niger, UniProt P13006). Conditions: for relative rate ± error / Ssubstrate − SL-Glu / Isubstrate / S/N / signal (Ibaseline − Isubstrate): 100 mM in PBS, 660 nm; for relative rate ± error: from exponential fits to the time series; for Ssubstrate − SL-Glu: signal minus L-Glu reference signal; for Isubstrate / S/N / signal (Ibaseline − Isubstrate): single MSPRS.
Method: The resonance measured at 660 nm wavelength was used to monitor reaction kinetics because it had the least overlap with neighboring peaks and because it lay in the red-NIR (near infra-red) optical window of tissue transparency, which allows use of MSPRSs to study complex media like blood, blood plasma and serum.
After depositing the cross-linker, we rinsed the end of the tubing for 10 s with DI-water using a 1 mL syringe. […] After the MSPR sensor signal reached a stable plateau indicating reaction saturation, the sensors were rinsed with DI-water until no further change in signal was recorded.

The target in assay [2] is T1, GOx. Conditions: cited from earlier work.
Assay [3] addresses T1, GOx. Briefly: MSPR sensor monitoring of Gox enzymatic activity under substrate flow. Conditions: for enzymatic activity response of Gox: flow of substrate, concentration not given.
A short description of assay [4]: MSPR sensor, monolayer formation / adsorption kinetics on the gold surface.
The nature of assay [5]: Biacore 3000 bare-gold-surface SPR chip, gold-DTSSP binding. In general terms: Surface plasmon resonance follows binding to a sensor surface in real time, without labels.
The conditions of assay [6]: Biacore 3000.

Like-named read-outs stand apart in the source and are kept apart here.

T1 sequence (P13006 23-605 limits assumed): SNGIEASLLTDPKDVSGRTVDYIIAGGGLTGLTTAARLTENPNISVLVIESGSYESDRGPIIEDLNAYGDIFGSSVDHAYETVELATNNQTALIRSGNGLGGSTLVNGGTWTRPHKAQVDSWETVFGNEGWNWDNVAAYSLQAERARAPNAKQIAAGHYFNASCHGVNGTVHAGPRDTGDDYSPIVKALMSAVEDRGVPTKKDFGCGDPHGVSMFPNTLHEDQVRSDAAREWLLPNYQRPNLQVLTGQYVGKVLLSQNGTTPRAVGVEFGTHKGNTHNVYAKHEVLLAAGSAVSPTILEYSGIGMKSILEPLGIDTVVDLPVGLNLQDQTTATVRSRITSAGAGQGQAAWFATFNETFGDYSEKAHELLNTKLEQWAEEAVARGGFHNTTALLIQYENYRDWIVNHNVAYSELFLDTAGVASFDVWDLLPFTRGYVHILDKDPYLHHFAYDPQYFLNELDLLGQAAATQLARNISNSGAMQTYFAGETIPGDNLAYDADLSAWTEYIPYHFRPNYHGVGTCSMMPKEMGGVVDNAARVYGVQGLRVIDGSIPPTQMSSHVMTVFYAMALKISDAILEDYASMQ

On to `O=CC[C@@H](O)[C@H](O)[C@H](O)CO` [2Do-Glu, 2-Deoxy-D-Glucose], for which, at GOx [1], the “relative rate ± error” value was 0.06 ± 65%, the “Ssubstrate − SL-Glu” value was 14 counts/s, the Isubstrate stood at 22190 counts/s and the S/N is recorded as 57 (17.5 dB). Moreover, on GOx [1], the “signal (Ibaseline − Isubstrate)” value was 535 counts/s. The “reaction rate with GOx as % of the βD-Glu rate” value (“reaction rate with GOx as %” below) at GOx [2] is given as 20%. Besides, the “enzymatic activity response of Gox” value at GOx [3] was “no enzymatic activity response”.

Regarding `OC[C@H]1OC(O)[C@@H](O)[C@@H](O)[C@@H]1O` (stereo partly drawn) [D-Man], on GOx [1], the “relative rate ± error” value was 0.24 ± 28%, the “Ssubstrate − SL-Glu” value stood at 58 counts/s, the Isubstrate is given as 22168 counts/s and the S/N was 36 (15.5 dB). Further, the “signal (Ibaseline − Isubstrate)” value at GOx [1] was found to be 579 counts/s. Moreover, the “reaction rate with GOx as %” value on GOx [2] was 1%.

`O=C(CCSSCCC(=O)ON1C(=O)CC(S(=O)(=O)O)C1=O)ON1C(=O)CC(S(=O)(=O)O)C1=O` (centres unmarked) [DTSSP]: in assay [4] (Example 5, phosphate buffer pH 5.8 and DI water), the “time constant of monolayer formation” value came out at 105 ± 8 s. The “reaction time, gold-DTSSP binding” value came to 209 ± 7 s in assay [4] (Example 6, MSPR sensor, 660 nm, exponential fit) and 184 ± 3 s in assay [5] (exponential fitting). For the same molecule, in assay [4] (MSPR sensor versus Biacore 3000), the “gold-DTSSP reaction time longer on MSPR sensor than on Biacore” value is on record as “ca. 12%”. The “decrease of MSPR sensor-emitted intensity at 660 nm” value in assay [4] (saturated gold-DTSSP reaction, from water baseline) was 1,481 counts/s. The SPR binding signal in assay [5] was 643 RU.

As to `O=C[C@@H](O)[C@H](O)[C@@H](O)[C@@H](O)CO` [L-Glu, L-Glucose], on GOx [1], the “relative rate ± error” value is listed as 0.00 ± 0%, the “Ssubstrate − SL-Glu” value was 0 counts/s, the Isubstrate is recorded as 22236 counts/s and the S/N is given as 21 (13.2 dB). Also, the “signal (Ibaseline − Isubstrate)” value on GOx [1] came out at 521 counts/s. Further, on GOx [1] (wash-in and wash-out, PBS baseline), the “interaction between substrate and sensor” value is “absence of both specific and non-specific interactions”. For the same molecule, at GOx [2], the “reaction rate with GOx as %” value is given as 0%. Also, the “enzymatic activity response of Gox” value at GOx [3] is given as “no enzymatic activity response”.

Regarding `CCCCCCCCCCCCS` [dodecanethiol], the “time constant for the film formation” value in assay [4] (100 mM concentration, from ethanol, first order exponential decay fit) worked out at 382 ± 7 s.

Consider `OC[C@H]1O[C@H](O)[C@H](O)[C@@H](O)[C@@H]1O` [αD-Glu, α-D-glucose], for which the “reaction rate with GOx as %” value at GOx [2] is 0.64%.

In the case of `OC[C@H]1O[C@@H](O)[C@H](O)[C@@H](O)[C@@H]1O` [β-D+Glucose], the “enzymatic activity of Gox detected” value at GOx [3] (1 mM in PBS 1×) is “the response was much slower”; on GOx [3] (100 mM in PBS 1×), “able to detect the enzymatic activity”.

For glucose oxidase [GOx], the “decrease of output signal on binding” value (6.25 μM in DI-water, from DTSSP baseline) is reported as 1,424 counts/s. The “reaction time, DTSSP-GOx binding” value (Example 6, MSPR sensor, exponential fit) is 211 ± 4 s and the “reaction time, DTSSP-GOx binding” value in assay [6] (exponential fitting) turned out to be 211 ± 4 s. Besides, in assay [6], the SPR binding signal was 553 RU.
